Laboratory results: ChEMBL document CHEMBL4330083, “Synthesis and evaluation of isoprenylation-resveratrol dimer derivatives against Alzheimer's disease” (Eur J Med Chem, 2019)

What was measured:
Assay type in all cases: functional
PC-12 [1] = experiment: (§1) Neuroprotection against H2O2-induced oxidative damage in rat PC12 cells assessed as reduction in ROS production by measuring mean fluorescence intensity at 2.5 uM preincubated for 4 hrs followed by H2O2 addition measured after 24 hrs by DCFH-DA staining-based flow cytometric analysis (reference value: 102489)
PC-12 [2] = experiment: as §1, with “5” for “2.5”
PC-12 [3] = experiment: as §1, with “10” for “2.5”
PC-12 [4] = experiment: Neuroprotection against H2O2-induced oxidative damage in rat PC12 cells assessed as late apoptotic cells at 2.5 uM after 24 hrs in presence of H2O2 by annexin V-FITC/propidium iodide staining based flow cytometric analysis (reference value: 6.2%)
PC-12 [5] = experiment: Neuroprotection against H2O2-induced oxidative damage in rat PC12 cells assessed as viable cells at 2.5 uM after 24 hrs in presence of H2O2 by annexin V-FITC/propidium iodide staining based flow cytometric analysis (reference value: 64.1%); conditions: PC-12, 24 h, read-out: Activity
PC-12 [6] = experiment: Neuroprotection against H2O2-induced oxidative damage in rat PC12 cells assessed as necrotic cells at 5 uM after 24 hrs in presence of H2O2 by annexin V-FITC/propidium iodide staining based flow cytometric analysis (reference value: 0.4%)
PC-12 [7] = experiment: Neuroprotection against H2O2-induced oxidative damage in rat PC12 cells assessed as viable cells at 10 uM after 24 hrs in presence of H2O2 by annexin V-FITC/propidium iodide staining based flow cytometric analysis (reference value: 64.1%); conditions: PC-12, 24 h, read-out: Activity
PC-12 [8] = experiment: Neuroprotection against H2O2-induced oxidative damage in rat PC12 cells assessed as intracellular Ca2+ level by measuring mean fluorescence intensity at 2.5 uM after 24 hrs in presence of H2O2 by Fluo-3/AM staining based flow cytometric analysis (reference value: 51697)
[9] = Neuroprotection against H2O2-induced inflammation in human BV2 cells assessed as reduction in ROS production by measuring mean fluorescence intensity at 2.5 uM after 18 hrs by DCFH-DA staining-based flow cytometric analysis (reference value: 20004)
PC-12 [10] = experiment: Neuroprotection against H2O2-induced oxidative damage in rat PC12 cells assessed as late apoptotic cells at 2.5 uM after 24 hrs in presence of H2O2 by annexin V-FITC/propidium iodide staining based flow cytometric analysis (reference value: 29.8%)
PC-12 [11] = experiment: Neuroprotection against H2O2-induced oxidative damage in rat PC12 cells assessed as necrotic cells at 2.5 uM after 24 hrs in presence of H2O2 by annexin V-FITC/propidium iodide staining based flow cytometric analysis (reference value: 4.5%)
PC-12 [12] = experiment: Neuroprotection against H2O2-induced oxidative damage in rat PC12 cells assessed as viable cells at 2.5 uM after 24 hrs in presence of H2O2 by annexin V-FITC/propidium iodide staining based flow cytometric analysis (reference value: 63.6%); conditions: PC-12, 24 h, read-out: Activity
PC-12 [13] = experiment: Neuroprotection against H2O2-induced oxidative damage in rat PC12 cells assessed as mitochondrial membrane potential at 2.5 uM after 24 hrs in presence of H2O2 by Jc-1 staining based flow cytometric analysis (reference value: 16.35 +/- 3.19%)
PC-12 [14] = experiment: Neuroprotection against H2O2-induced oxidative damage in rat PC12 cells assessed as mitochondrial membrane potential at 5 uM after 24 hrs in presence of H2O2 by Jc-1 staining based flow cytometric analysis (reference value: 16.35 +/- 3.19%)
PC-12 [15] = experiment: Neuroprotection against H2O2-induced oxidative damage in rat PC12 cells assessed as intracellular Ca2+ level by measuring mean fluorescence intensity at 5 uM after 24 hrs in presence of H2O2 by Fluo-3/AM staining based flow cytometric analysis (reference value: 43156)

SMILES | Flu intensity (PC-12 [1]) | Flu intensity (PC-12 [2]) | Flu intensity (PC-12 [3]) | Activity (PC-12 [4]) | viability at 2.5 µM (PC-12 [5]) | Activity (PC-12 [6]) | viability at 10 µM (PC-12 [7]) | Flu intensity (PC-12 [8]) | Flu intensity [9] | Activity (PC-12 [10]) | Activity (PC-12 [11]) | viability at 2.5 µM (PC-12 [12]) | Activity (PC-12 [13]) | Activity (PC-12 [14]) | Flu intensity (PC-12 [15])
CC(C)=CCc1c(O)cc(/C=C/c2ccc3c(c2)[C@H](c2cc(O)c(CC=C(C)C)c(O)c2)[C@@H](c2ccc(O)cc2)O3)cc1O | 97612 | 85417 | 25470 | 4.2% | 75.9% | 0.7% | 88.4% | 40059 | 14563 | – | – | – | – | – | –
CC(C)=CCc1c(O)cc(/C=C/c2ccc3c(c2)[C@H](c2cc(O)c4c(c2)OC(C)(C)CC4)[C@@H](c2ccc(O)cc2)O3)cc1O | – | – | – | – | – | – | – | – | – | 25.1% | 4.8% | 68% | 42.34% | 68.51% | 37986
